The values that follow come from patent US20090162372A1, “FIBRONECTIN ED-B ANTIBODIES, CONJUGATES THEREOF, AND METHODS OF USE” (Medarex, Inc., priority 2007, published 2009).

For series [1] the following is noted: experimental animals; cited from earlier work.
For series [2], the system named is LNCaP/prostate stroma coculture tumors. The experiment in a line: Efficacy against LNCaP/prostate stroma coculture tumors in SCID mice (tumor volume). The class given is in vivo, CB17.SCID mice. To be noted: naked antibody 30 mg/kg IP SD on Day 0; to Day 62; FIG. 4. On the procedure: In order to determine the efficacy of anti-RG-1 and ED-B-cytotoxin conjugates (using the cytotoxin/linker of formula (m)), LNCaP xenografts were performed as follows: 120 CB17.SCID mice were each subcutaneously injected with 2 million LNCaP cells and 1 million prostate stroma cells (cat# CC-2508, Cambrex Bio Science Walkersville, Inc, Walkersville, Md.) resuspended in 0.2 ml of PBS/Matrigel (1:1) (BD Bioscience) at the flank region. This LNCaP/Stroma model expresses high levels of PMSA on the cell surface, high levels of RG-1 in the stroma, and low levels of ED-B in the stroma. CD70 is used as an isotype control as the xenographs are negative for CD70. Mice were weighed and measured for tumors three dimensionally using an electronic caliper once weekly after implantation. Tumor volumes were calculated as height×width×length/2. Mice with tumors averaging 50 mm^3 were randomized into 16 treatment groups of seven mice on Day-1 and mice were treated intraperitoneally with vehicle, antibody, or antibody-cytotoxin conjugate according to the dosing regimen described in Table 1 on Day 0, Studies were terminated at Day 62.

In the case of `COc1c(O)c2c(c3cc(C(=O)N4CCc5c4c(O)c(OC)c4[nH]c(C(=O)N6CC7CC78C6=CC(=O)c6[nH]cc(C)c68)cc54)[nH]c13)CCN2C(N)=O` (centres unmarked) [CC-1065], in series [1], the delayed death result is on record as “causes delayed death in experimental animals”.

B1: anti-ED-B: human monoclonal antibody 1C5 binding fibronectin ED-B, VH SEQ ID NO: 7, VL SEQ ID NO: 8; naked antibody (antibody, listed as Homo sapiens, V domains shown)
VH: EVQLVESGGGLVQPGGSLRLSCAASGFTFSSYSMNWVRQAPGKGLEWVSYISSSSRAIYYADSVKGRFTISRDNAKNSLYLQMNSLRDEDTAVYYCARARYFDWLWYYWGQGTLVTVSS
VL: EIVLTQSPGTLSLSPGERATLSCRASQSVSSSYLAWYQQEPGQAPRLLIYGASSRATGIPDRFSGSGSGTDFTLTISRLEPEDFAVYYCQQRSNWPPTFGQGTKVEIK
For the molecule B1, the “effect on tumor growth (median tumor volume)” value in series [2] is on record as “no inhibitory effect on tumor growth”.
